Usually EC50 stands for the midpoint of the concentration-response curve.

*1 amine or outer side, *2 acyl side, *3 side chain or, on linkers, in order; H or OH if unused. Where a SMILES comes first, the peptide text is derived from it. Side-chain parts run from the residue outwards. [ ]: non-standard residue; d: D form. The star is where a group is joined. γGlu = O=C(O)[C@H](CCC(=O)[*:2])N[*:1]; Desaminohistidyl = O=C(CCc1c[nH]cn1)*; Aib = CC(C)(N)C(=O)O

Here are results for four compounds from patent publication US9963496B2, “Stable glucagon analogues and use for treatment of hypoglycaemia” (Novo Nordisk A/S, priority 2014, dated 2018).

The target of data set [1] is T1, human glucagon receptor (Homo sapiens, UniProt P47871).
T1 construct: expressed in transfected cells; host or cells: BHK cells, clone BHK hGCGR A3*25; isolated membranes
T1 sequence (P47871 26-477): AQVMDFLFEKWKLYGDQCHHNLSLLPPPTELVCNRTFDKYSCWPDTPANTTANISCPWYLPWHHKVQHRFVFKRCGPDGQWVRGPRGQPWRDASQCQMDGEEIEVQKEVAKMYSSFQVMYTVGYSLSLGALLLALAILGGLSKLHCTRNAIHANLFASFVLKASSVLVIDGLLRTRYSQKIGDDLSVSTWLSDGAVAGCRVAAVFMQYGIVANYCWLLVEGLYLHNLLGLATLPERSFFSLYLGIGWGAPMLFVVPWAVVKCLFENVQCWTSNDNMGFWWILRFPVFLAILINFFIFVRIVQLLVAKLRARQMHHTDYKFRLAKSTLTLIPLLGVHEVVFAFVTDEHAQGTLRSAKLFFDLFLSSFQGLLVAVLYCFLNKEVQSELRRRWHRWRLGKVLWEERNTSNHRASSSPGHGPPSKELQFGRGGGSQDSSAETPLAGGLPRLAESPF
Kind of data set: Assay (I)(b): glucagon receptor activation, CRE luciferase reporter gene assay in BHK cells. The class given is cell-based. The following applies: BHK cells expressing human glucagon receptor and CRE luciferase, 3 h incubation; read-out: EC50 hGlucagonR. The procedure: The purpose of this assay is to test the activity, or potency, of the derivatives of the invention, in vitro. The in vitro potency is the measure of human GLP-1 receptor and/or glucagon receptor activation, respectively, in a whole cell assay.
In vitro potency was determined by measuring the response of human GLP-1 or glucagon receptor, respectively, in a reporter gene assay. The assay was performed in a stably transfected BHK cell line that expressed either the human GLP-1 receptor or the human glucagon receptor and contained the DNA for the cAMP response element (CRE) coupled to a promoter and the gene for firefly luciferase (CRE luciferase). […] When assay incubation was completed, the luciferase substrate (luciferin) was added and the enzyme converted luciferin to oxyluciferin and produced bioluminescence. The luminescence was measured as the readout for the assay.
(b) Glucagon Receptor Activation
The cells used in this assay (clone pLJ6′-4-25) were BHK cells with BHK570 as a parent cell line expressing the CRE luciferase gene (clone BHK/KZ10-20-48) and were established by further transfection with the human glucagon receptor (clone pLJ6′ in pHZ-1 vector).
The cells were cultured at 5% CO2 in DMEM medium with 10% FBS, 1× GlutaMAX, 1 mg/mL G418, 240 nM MTX (methotrexate) and 1% pen/strep (penicillin/streptomycin). They were aliquoted and stored in liquid nitrogen. Before each assay, an aliquot was taken up and washed three times in PBS before being suspended at the desired concentration in assay buffer. For 96-well plates the suspension was made to give a final concentration of 5×10 EE3 cells/well.
Assay Medium consisted of DMEM w/o phenol red, 10 mM Hepes, lx GlutaMAX, 2% Ovalbumin and 0.2% Pluronic F-68.
Cell stocks were thawed in a 37° C. water bath. Cells were washed three times in PBS. The cells were counted and adjusted to 5×10 EE3 cells/50 μl (1×10 EE5 cells/mL) in Assay Medium. A 50 μl aliquot of cells was transferred to each well in the assay plate.
Stocks of the test compounds and reference compounds were diluted to a concentration of […] in Assay Medium. Compounds were diluted 10-fold to give the following concentrations: […], 2×10 EE-7 M, 2×10 EE-8 M; 2×10 EE-9 M, 2×10 EE-10 M, 2×10 EE-11 M, 2×10 EE-12 M and 2×10 EE-13 M. For each compound a blank assay buffer control was also included.
A 50 μl aliquot of compound or blank was transferred from the dilution plate to the assay plate. Compounds were tested at the following final concentrations: 1×10 EE-6 M, 1×10 EE-7 M, 1×10 EE-8 M; 1×10 EE-9 M, 1×10 EE-10 M, 1×10 EE-11 M and 1×10 EE-12 M and 1×10 EE-13 M.
The assay plate was incubated for 3 h in a 5% CO2 incubator at 37° C. The assay plate was removed from the incubator and allowed to stand at room temperature for 15 min. A 100 μl aliquot of steadylite plus reagent was added to each well of the assay plate (reagent is light sensitive). Each assay plate was covered with aluminum foil to protect it from light and shaken for 30 min at room temperature. Each assay plate was read in a Packard TopCount NXT instrument.
The data from the TopCount instrument was transferred to GraphPad Prism software. The software performed a non-linear regression (log(agonist) vs response-Variable slope (four parameter)). EC50 values were calculated by the software and reported in pM.
In general terms: A reporter such as luciferase makes a cellular process visible.

The nature of data set [2]: physchem. It counts as physicochemical. The following applies: pH 7.5. Put shortly:
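Peptide at 250 μM in 10 mM HEPES pH 7.5 with 1 μM Thioflavin T, incubated at 37° C with 960 rpm orbital shaking. ThT fluorescence (ex 444/em 485 nm) read every 20 min; lag-time (t0−2τ) and kapp (1/τ) from curve fit. Recovery is post-assay supernatant peptide by RP-HPLC as % of initial.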

On to `CC(=O)N[C@@H](CCC(=O)N[C@@H](CCC(=O)N[C@@H](CCC(=O)N[C@@H](CCC(=O)NCCCC[C@H](NC(=O)[C@@H](NC(=O)[C@H](Cc1ccccc1)NC(=O)[C@H](CC(=O)O)NC(=O)[C@H](CCC(N)=O)NC(=O)[C@H](C)NC(=O)[C@H](CCCNC(=N)N)NC(=O)[C@H](CCCNC(=N)N)NC(=O)[C@H](CO)NC(=O)[C@H](CCC(=O)O)NC(=O)[C@H](CC(C)C)NC(=O)[C@H](Cc1ccc(O)cc1)NC(=O)[C@H](CCCCN)NC(=O)[C@H](CO)NC(=O)[C@H](Cc1ccc(O)cc1)NC(=O)[C@H](CC(=O)O)NC(=O)[C@H](CO)NC(=O)[C@@H](NC(=O)[C@H](Cc1ccccc1)NC(=O)[C@@H](NC(=O)CNC(=O)[C@H](Cc1c[nH]cn1)NC(=O)C(C)(C)NC(=O)CCc1c[nH]cn1)[C@@H](C)O)[C@@H](C)O)C(C)C)C(=O)N[C@@H](Cc1c[nH]c2ccccc12)C(=O)N[C@@H](CC(C)C)C(=O)N[C@@H](CC(C)C)C(=O)N[C@@H](CO)C(=O)N[C@H](C(=O)O)[C@@H](C)O)C(=O)O)C(=O)O)C(=O)O)C(=O)O` [Example 2, N^ϵ24-[(4S)-4-[[(4S)-4-[[(4S)-4-[[(4S)-4-acetamido-4-carboxybutanoyl]amino]-4-carboxybutanoyl]amino]-4-carboxybutanoyl]amino]-4-carboxybutanoyl]-[Imp1, Aib2, His3, Glu15, Lys24, Leu27, Ser28]-Glucagon] (Desaminohistidyl-[Aib]HGTFTSDYSKYLESRRAQDFVK([γGlu-γGlu-γGlu-γGlu-Ac])WLLST-OH), for which the EC50 in data set [1] worked out at 0.005 nM. The recovery at 250 μM in data set [2] turned out to be 104%.
On the same counts, the results for `CC(=O)N[C@@H](CCC(=O)N[C@@H](CCC(=O)N[C@@H](CCC(=O)N[C@@H](CCC(=O)N[C@@H](CCC(=O)NCCCC[C@H](NC(=O)[C@@H](NC(=O)[C@H](Cc1ccccc1)NC(=O)[C@H](CCC(=O)O)NC(=O)[C@H](CCC(N)=O)NC(=O)[C@H](C)NC(=O)[C@H](CCCNC(=N)N)NC(=O)[C@H](CCCNC(=N)N)NC(=O)[C@H](CO)NC(=O)[C@H](CCC(=O)O)NC(=O)[C@H](CC(C)C)NC(=O)[C@H](Cc1ccc(O)cc1)NC(=O)[C@H](CCCCN)NC(=O)[C@H](CO)NC(=O)[C@H](Cc1ccc(O)cc1)NC(=O)[C@H](CC(=O)O)NC(=O)[C@H](CO)NC(=O)[C@@H](NC(=O)[C@H](Cc1ccccc1)NC(=O)[C@@H](NC(=O)CNC(=O)[C@H](Cc1c[nH]cn1)NC(=O)[C@H](CO)NC(=O)CCc1c[nH]cn1)[C@@H](C)O)[C@@H](C)O)C(C)C)C(=O)N[C@@H](Cc1c[nH]c2ccccc12)C(=O)N[C@@H](CC(C)C)C(=O)N[C@@H](CC(C)C)C(=O)N[C@@H](CO)C(=O)N[C@H](C(=O)O)[C@@H](C)O)C(=O)O)C(=O)O)C(=O)O)C(=O)O)C(=O)O` [Example 19, N^ϵ24-[(4S)-4-[[(4S)-4-[[(4S)-4-[[(4S)-4-[[(4S)-4-acetamido-4-carboxybutanoyl]amino]-4-carboxybutanoyl]amino]-4-carboxybutanoyl]amino]-4-carboxybutanoyl]amino]-4-carboxybutanoyl]-[Imp1, His3, Glu15, Glu21, Lys24, Leu27, Ser28]-Glucagon] (Desaminohistidyl-SHGTFTSDYSKYLESRRAQEFVK([γGlu-γGlu-γGlu-γGlu-γGlu-Ac])WLLST-OH) are 0.006 nM and 104%.
On the same counts, the results for `CC(=O)N[C@@H](CCC(=O)N[C@@H](CCC(=O)N[C@@H](CCC(=O)N[C@@H](CCC(=O)NCCCC[C@H](NC(=O)[C@H](CCC(N)=O)NC(=O)[C@H](C)NC(=O)[C@H](CCCNC(=N)N)NC(=O)[C@H](CCCNC(=N)N)NC(=O)[C@H](CO)NC(=O)[C@H](CCC(=O)O)NC(=O)[C@H](CC(C)C)NC(=O)[C@H](Cc1ccc(O)cc1)NC(=O)[C@H](CCCCN)NC(=O)[C@H](CO)NC(=O)[C@H](Cc1ccc(O)cc1)NC(=O)[C@H](CC(=O)O)NC(=O)[C@H](CO)NC(=O)[C@@H](NC(=O)[C@H](Cc1ccccc1)NC(=O)[C@@H](NC(=O)CNC(=O)[C@H](Cc1c[nH]cn1)NC(=O)[C@H](CO)NC(=O)CCc1c[nH]cn1)[C@@H](C)O)[C@@H](C)O)C(=O)N[C@@H](Cc1ccccc1)C(=O)N[C@H](C(=O)N[C@@H](CCC(N)=O)C(=O)N[C@@H](Cc1c[nH]c2ccccc12)C(=O)N[C@@H](CC(C)C)C(=O)N[C@@H](CC(C)C)C(=O)N[C@@H](CO)C(=O)N[C@H](C(=O)O)[C@@H](C)O)C(C)C)C(=O)O)C(=O)O)C(=O)O)C(=O)O` [Example 13, Nϵ^21-[(4S)-4-[[(4S)-4-[[(4S)-4-[[(4S)-4-acetamido-4-carboxybutanoyl]amino]-4-carboxybutanoyl]amino]-4-carboxybutanoyl]amino]-4-carboxybutanoyl]-[Imp1, His3, Glu15, Lys21, Leu27, Ser28]-Glucagon] (Desaminohistidyl-SHGTFTSDYSKYLESRRAQK([γGlu-γGlu-γGlu-γGlu-Ac])FVQWLLST-OH) are 0.017 nM and 39%.
On the same counts, the results for `CC(=O)N[C@@H](CCC(=O)N[C@@H](CCC(=O)N[C@@H](CCC(=O)N[C@@H](CCC(=O)NCCCC[C@H](NC(=O)[C@@H](NC(=O)[C@H](Cc1ccccc1)NC(=O)[C@H](CCC(=O)O)NC(=O)[C@H](CCC(N)=O)NC(=O)[C@H](C)NC(=O)[C@H](CCCNC(=N)N)NC(=O)[C@H](CCCNC(=N)N)NC(=O)[C@H](CO)NC(=O)[C@H](CCC(=O)O)NC(=O)[C@H](CC(C)C)NC(=O)[C@H](Cc1ccc(O)cc1)NC(=O)[C@H](CCCCN)NC(=O)[C@H](CO)NC(=O)[C@H](Cc1ccc(O)cc1)NC(=O)[C@H](CC(=O)O)NC(=O)[C@H](CO)NC(=O)[C@@H](NC(=O)[C@H](Cc1ccccc1)NC(=O)[C@@H](NC(=O)CNC(=O)[C@H](Cc1c[nH]cn1)NC(=O)[C@H](CO)NC(=O)CCc1c[nH]cn1)[C@@H](C)O)[C@@H](C)O)C(C)C)C(=O)N[C@@H](Cc1c[nH]c2ccccc12)C(=O)N[C@@H](CC(C)C)C(=O)N[C@@H](CC(C)C)C(=O)N[C@@H](CCC(=O)O)C(=O)N[C@H](C(=O)O)[C@@H](C)O)C(=O)O)C(=O)O)C(=O)O)C(=O)O` [Example 22, N^ϵ24-[(4S)-4-[[(4S)-4-[[(4S)-4-[[(4S)-4-acetamido-4-carboxybutanoyl]amino]-4-carboxybutanoyl]amino]-4-carboxybutanoyl]amino]-4-carboxybutanoyl]-[Imp1, His3, Glu15, Glu21, Lys24, Leu27, Glu28]-Glucagon] (Desaminohistidyl-SHGTFTSDYSKYLESRRAQEFVK([γGlu-γGlu-γGlu-γGlu-Ac])WLLET-OH) are 0.017 nM and 100%.
